Experimental data from patent US8716233B2, “NOTCH mutations leading to increased receptor signaling” (The Brigham and Women's Hospital, Inc., priority 2004, dated 2014).

Legend:
NOTCH-1 = assay: NOTCH-sensitive luciferase reporter gene assay in transiently transfected U2OS cells; format: cell-based, human
Experimental: FIG. 4A-4B. HD and PEST domain mutations activate NOTCH-1 signaling synergistically. (4A) Reporter gene assays. U2OS cells were transiently co-transfected in 24-well format with the indicated pcDNA3 plasmids, a NOTCH-responsive luciferase reporter gene, and an internal Renilla luciferase internal control plasmid, as described previously (Aster, et al., Mol. Cell. Biol. 20:7505-15). Twenty-five ng of pcDNA3 plasmid was used per well, except for experiments with pcDNA3-ICN1, in which 5 ng of plasmid per well were used. Normalized luciferase activities in whole cell lysates were determined in triplicate and expressed relative to the activity in lysates prepared from cells transfected with the empty vector control. (4B) Model for synergistic NOTCH-1 activation by dual mutations involving both the HD and PEST domains.
NOTCH-1 expression plasmids (pcDNA3) were transiently transfected with U2OS cells with (i) an artificial luciferase reporter gene under the control of a promoter containing CSL binding sites and (ii) an internal Renilla luciferase control gene, as described previously (Aster, et al., Mol. Cell. Biol. 20:7505-7515 (2000)), using Lipofectamine Plus (Invitrogen). Total DNA was kept constant by adding empty vector as needed. All transfections were carried out in triplicate, and each experiment was repeated at least three times.

human T-ALL cell lines = assay: Gamma-secretase inhibitor treatment of T-ALL cell lines, cell cycle analysis by flow cytometry; format: cell-based; details: compound E 1 μM, 4-8 days; thirty human T-ALL cell lines lacking t(7;9); compared with murine T6E reference line
Experimental: FIG. 2A-2C. Identification of T-ALL cell lines that require NOTCH signals for growth. (2A) Effect of the γ-secretase inhibitor compound E (GSI, 1 μM) or vehicle alone (mock) on the cell cycle distribution of sensitive cell lines. Cells were treated for 4-8 days, fixed in cold 70% ethanol, stained with propidium iodide, and analyzed by flow cytometry. Live cells were gated by forward/side scatter criteria. (2B) Rescue of GSI-induced cell cycle arrest by MSCV-GFP-ICN1 retrovirus. (2C) Induction of cell cycle arrest by dominant negative MSCV-GFP-Mastermind-like-1 retrovirus. In (2B) and (2C), control cultures were transduced with control empty MSCV-GFP retrovirus or the indicated test virus. Two days post-transduction, cultures were split in two and treated with either compound E (GSI) or DMSO vehicle (mock) for 7-10 days. Cultures were then harvested and stained with the DNA dye DRAQ5, which permits flow cytometric measurement of DNA content in unsorted GFP− and GFP+ subpopulations. A minimum of 15,000 events was collected to create each DNA content histogram. […]
DNA content was ascertained by flow cytometry and cell cycle factors determined using multicycle software (Phoenix Flow Systems, San Diego).

C[C@H](NC(=O)Cc1cc(F)cc(F)c1)C(=O)N[C@H]1N=C(c2ccccc2)c2ccccc2N(C)C1=O [γ-secretase inhibitor, compound E]
stimulatory effects of mutated transmembrane NOTCH-1 polypeptides on luciferase reporter activity (NOTCH-1; HD and/or PEST domain mutated NOTCH-1 plasmids): completely abrogated
stimulation of luciferase reporter activity produced by ICN1 (NOTCH-1; pcDNA3-ICN1 (constitutively nuclear)): unaffected
cell cycle distribution (G0/G1 cell cycle arrest) of T-ALL cell lines (human T-ALL cell lines): five of thirty human T-ALL cell lines tested showed a G0/G1 cell cycle arrest
